How the values were obtained:
[1] = test system: living hepatocytes and colon cancer cells; test: Penetration of cresyl violet-based substrates into living cells; type: cell-based, rat
Experimental: Cathepsin B activity was detected in real-time in living CC531 cells and freshly prepared living rat hepatocytes after isolation by collagenase perfusion of livers of male mature rats after 24 h of starvation (47). At time point zero, cell preparations were diluted 20-fold in PBS containing either 10 μM (Z-Arg)^2 -cresyl violet (Enzyme Systems Products, Dublin, Calif.) as fluorogenic substrate for cathepsin B (48) or 10 μM substrate and 20 μM FMK (Protek, Dublin, Calif.), as selective cathepsin B inhibitor (40,41). The fluorogenic substrate is not fluorescent but after proteolytic cleavage, liberated cresyl violet is fluorescent. Synthesis of the substrate is described elsewhere in Ref. 48. The substrate was dissolved first in dimethyl formamide (final concentration in the incubation medium was 1% (v/v)). An aliquot of 100 μl of the cell suspensions was brought into a well formed by a stainless steel ring attached to a glass slide (49). […] Excitation was performed at a wavelength of 560 nm and fluorescence was captured at greater than 580 nm. […] Images in the X-Y plane were recorded with intervals of 0.5 μm in the Z direction. […] Images were recorded in a 512×512 pixel format. […]
The localization properties of cresyl violet in individual cells were investigated using confocal microscopy. […] The fluorescence is localized only in patches at the plasma membrane. […]

cathepsin B [2] = biological target: T1, cathepsin B (Rattus norvegicus, UniProt P00787); test: Cathepsin B activity in living rat hepatocytes (CSLM, (Z-Arg)^2 -cresyl violet); type: cell-based; details: living rat hepatocyte, 10 μM substrate (printed μm), 5 min, PBS
Experimental: Cathepsin B activity was detected in real-time in living CC531 cells and freshly prepared living rat hepatocytes after isolation by collagenase perfusion of livers of male mature rats after 24 h of starvation (47). At time point zero, cell preparations were diluted 20-fold in PBS containing either 10 μM (Z-Arg)^2 -cresyl violet (Enzyme Systems Products, Dublin, Calif.) as fluorogenic substrate for cathepsin B (48) or 10 μM substrate and 20 μM FMK (Protek, Dublin, Calif.), as selective cathepsin B inhibitor (40,41). The fluorogenic substrate is not fluorescent but after proteolytic cleavage, liberated cresyl violet is fluorescent. Synthesis of the substrate is described elsewhere in Ref. 48. The substrate was dissolved first in dimethyl formamide (final concentration in the incubation medium was 1% (v/v)). An aliquot of 100 μl of the cell suspensions was brought into a well formed by a stainless steel ring attached to a glass slide (49). Images of cells were captured in real-time with a Leica CSLM fitted to a Leica Fluovert inverted microscopic equipped with a PL APO oil-immersion objective (×63, NA 1.40). Excitation was performed at a wavelength of 560 nm and fluorescence was captured at greater than 580 nm. […] Images in the X-Y plane were recorded with intervals of 0.5 μm in the Z direction. […] Images were recorded in a 512×512 pixel format. […]

cathepsin B [3] = biological target: T1, cathepsin B; test: Cathepsin B activity in living CC531 colon cancer cells (CSLM, (Z-Arg)^2 -cresyl violet); type: cell-based; details: living CC531 cells, 10 μM substrate (printed μm), 5 min, PBS
Experimental: An established rat colon carcinoma cell line, CC531, was used for all experiments. The parental cell line was obtained from a 1,2-dimethylhydrazine-induced moderately differentiated and weakly immunogenic colon adenocarcinoma in WAG-Rij rats (44). Cells were cultured in vitro at 37° C. as monolayers in Dulbecco's modification of Eagle's medium (ICN Biomedicals, Irvine, Ayrshire, UK) supplemented with 10% (w/v) fetal bovine serum, 2 mM glutamine, 100 IU penicillin/ml and 100 μg streptomycin/ml. Cells were washed in PBS and, after detachment by scraping and centrifugation (250 g, room temperature, 10 min), a single cell suspension at a final concentration of 1×10^6 cancer cells in 50 μl of PBS was obtained with a viability of at least 95% (45,46). Cell suspension were either used for cytochemical purposes or for in vivo administration to induce metastases in the liver.
Cathepsin B activity was detected in real-time in living CC531 cells and freshly prepared living rat hepatocytes after isolation by collagenase perfusion of livers of male mature rats after 24 h of starvation (47). At time point zero, cell preparations were diluted 20-fold in PBS containing either 10 μM (Z-Arg)^2 -cresyl violet (Enzyme Systems Products, Dublin, Calif.) as fluorogenic substrate for cathepsin B (48) or 10 μM substrate and 20 μM FMK (Protek, Dublin, Calif.), as selective cathepsin B inhibitor (40,41). The fluorogenic substrate is not fluorescent but after proteolytic cleavage, liberated cresyl violet is fluorescent. Synthesis of the substrate is described elsewhere in Ref. 48. The substrate was dissolved first in dimethyl formamide (final concentration in the incubation medium was 1% (v/v)). An aliquot of 100 μl of the cell suspensions was brought into a well formed by a stainless steel ring attached to a glass slide (49). Images of cells were captured in real-time with a Leica CSLM fitted to a Leica Fluovert inverted microscopic equipped with a PL APO oil-immersion objective (×63, NA 1.40). Excitation was performed at a wavelength of 560 nm and fluorescence was captured at greater than 580 nm. Excitation with the use of green light is harmless to living cells. The pinhole aperture was set at 100 giving an optimized image (50). With fixed pinhole, filter combination and a laser power setting adjusted to give minimal fading, the photomultiplier gain and photometric offset were optimized. Cells were subjected to optical serial sectioning after each 60 s of incubation up to 300 s. Images in the X-Y plane were recorded with intervals of 0.5 μm in the Z direction. For analysis, each optical section was averaged eight times. Images were recorded in a 512×512 pixel format. The size of each pixel represented 0.015 μm^2 in the object. […]

T1 sequence (P00787 80-333): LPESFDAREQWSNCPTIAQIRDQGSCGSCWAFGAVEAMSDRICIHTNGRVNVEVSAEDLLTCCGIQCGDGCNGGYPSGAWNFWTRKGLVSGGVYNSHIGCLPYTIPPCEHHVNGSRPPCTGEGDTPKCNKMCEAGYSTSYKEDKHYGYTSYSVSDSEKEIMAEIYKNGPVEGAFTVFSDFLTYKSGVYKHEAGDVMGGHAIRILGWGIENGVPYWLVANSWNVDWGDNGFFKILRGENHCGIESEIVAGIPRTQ

N=C(N)NCCC[C@H](NC(=O)OCc1ccccc1)C(=O)NC1=CC2Oc3cc(NC(=O)[C@H](CCCNC(=N)N)NC(=O)OCc4ccccc4)ccc3N=C2c2ccccc21 (stereo partly drawn) [[Z-Arg]^2-cresyl violet]
cell penetration [1]: penetrate living cells | localization of cathepsin B activity (cresyl violet fluorescence) (cathepsin B [2]): present in granular lysosome-like intracellular compartments | localization of cathepsin B activity (cresyl violet fluorescence) (cathepsin B [3]): found at the plasma membrane (large arrowheads) and intracellularly
